These results are taken from PubChem BioAssay (NCI).

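Five concentrations, 48 hours, 96-well plates. The concentration for 50% growth inhibition is given as GI50. TGI is the concentration that stops growth completely.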

Test systems include 786-0 renal; A549 NSCLC; ACHN renal; HCC-2998 colon; HOP-62 NSCLC; K-562 leukemia; OVCAR-3 ovarian; OVCAR-8 ovarian; RPMI-8226 leukemia; RXF 393 renal; SK-MEL-28 melanoma; SN12C renal; SNB-75 CNS.
Holding throughout (assay): NCI tumour cell line growth inhibition, 48 h

Take `S=c1[nH]nc(NNc2ccccc2)n1Nc1ccccc1`: the TGI with 786-0 renal, in the test with A549 NSCLC, with ACHN renal, in the test with HCC-2998 colon, in the test with HOP-62 NSCLC and with K-562 leukemia was greater than 100 µM throughout. For the same compound, the TGI with OVCAR-3 ovarian, in the test with OVCAR-8 ovarian, in the test with RPMI-8226 leukemia, in the test on RXF 393 renal, in the test on SK-MEL-28 melanoma and in the test on SN12C renal was greater than 100 µM each time. The compound also gave a TGI in the test on SNB-75 CNS greater than 100 µM.
As for `Nc1nc(N)c2nc(CNc3ccc(C(=O)NC(CCCCNC(=O)c4ccccc4C(=O)O)C(=O)O)cc3)cnc2n1` (configuration not stated), the TGI with 786-0 renal, in the test on A549 NSCLC, in the test with ACHN renal, in the test on HCC-2998 colon, with HOP-62 NSCLC and with K-562 leukemia was greater than 100 µM each time. Moreover, the TGI with OVCAR-3 ovarian, in the test on OVCAR-8 ovarian, with RPMI-8226 leukemia, in the test on RXF 393 renal, in the test on SK-MEL-28 melanoma and in the test on SN12C renal was greater than 100 µM each time. This compound also came in with a TGI in the test with SNB-75 CNS greater than 100 µM. Also, the GI50 with A549 NSCLC is 0.00745 µM; in the test with ACHN renal, 0.00519 µM; in the test with HOP-62 NSCLC it was 0.0305 µM; in the test on OVCAR-8 ovarian, 0.0059 µM; in the test with SN12C renal it was 0.0127 µM.
In the case of `CC(CCCOC(c1ccccc1)(c1ccccc1)c1ccccc1)OC(=O)Nc1ccccc1` (configuration not stated), the TGI was determined as 29.9 µM in the test on 786-0 renal; 23.2 µM with A549 NSCLC; 26.5 µM with ACHN renal; 27.3 µM in the test on HCC-2998 colon; 28.1 µM in the test on HOP-62 NSCLC; 32.4 µM in the test on K-562 leukemia. The TGI in the test with OVCAR-3 ovarian came to 26.9 µM; in the test with OVCAR-8 ovarian, 27.1 µM; in the test with RPMI-8226 leukemia, 42.1 µM; in the test with RXF 393 renal, 26.5 µM; in the test with SK-MEL-28 melanoma it was 28.7 µM; with SN12C renal, 24.4 µM. In the test with SNB-75 CNS, this compound registered a TGI of 27.9 µM.
With `CC(=O)c1sc(=N)n(-c2c(C)cccc2C)c1C`, the TGI in the test with 786-0 renal, with A549 NSCLC, in the test with ACHN renal, with HCC-2998 colon, in the test on HOP-62 NSCLC and in the test on K-562 leukemia was greater than 100 µM each time. Further, the TGI in the test with OVCAR-3 ovarian, in the test with RPMI-8226 leukemia, in the test with RXF 393 renal, with SK-MEL-28 melanoma, with SN12C renal and with SNB-75 CNS was greater than 100 µM in each case.
Take `CC1=C(C(=O)Nc2ccc([N+](=O)[O-])cc2)C(c2ccccc2F)C(C(=O)Nc2ccc([N+](=O)[O-])cc2)=C(C)N1`: the TGI is greater than 100 µM with 786-0 renal; greater than 100 µM in the test with A549 NSCLC; 39.8 µM in the test on ACHN renal; 29.1 µM in the test on HCC-2998 colon; 47.8 µM in the test on HOP-62 NSCLC; greater than 100 µM in the test with K-562 leukemia. Also, the TGI is 39.8 µM in the test on OVCAR-3 ovarian; greater than 100 µM in the test with OVCAR-8 ovarian; 27.5 µM in the test with RPMI-8226 leukemia; 79.2 µM in the test with RXF 393 renal; greater than 100 µM in the test on SK-MEL-28 melanoma; 48.3 µM with SN12C renal. In addition, in the test with SNB-75 CNS, the TGI is 83.9 µM.
With `C=CCN1CN(c2ccccc2)C2(CCN(CCCC3(c4ccc(F)cc4)OCCO3)CC2)C1=O`, the TGI in the test on 786-0 renal was determined as 33.6 µM; in the test on A549 NSCLC it was 42.9 µM; with ACHN renal, 48.3 µM; in the test on HCC-2998 colon, 35.6 µM; in the test with HOP-62 NSCLC, 36 µM; in the test on K-562 leukemia it was 25.4 µM. In addition, the TGI in the test on OVCAR-3 ovarian amounted to 27.7 µM; in the test with OVCAR-8 ovarian, 32.5 µM; in the test on RPMI-8226 leukemia, 34.2 µM; in the test on RXF 393 renal it was 28.1 µM; with SK-MEL-28 melanoma, 30.8 µM; in the test with SN12C renal, 32 µM. For the same compound, the TGI in the test on SNB-75 CNS stood at 32.8 µM.
Regarding `COc1ccc(N2C(=O)CC(c3c[nH]c4ncccc34)C2=O)cc1` (configuration not stated), the TGI in the test with 786-0 renal was 49.7 µM; in the test with A549 NSCLC, greater than 100 µM; in the test on ACHN renal, 43.6 µM; with HCC-2998 colon it was greater than 100 µM; in the test with HOP-62 NSCLC, greater than 100 µM; with K-562 leukemia, 24.9 µM. For the same compound, the TGI in the test with OVCAR-3 ovarian is 36.2 µM; in the test on OVCAR-8 ovarian, 42.4 µM; in the test with RPMI-8226 leukemia, greater than 100 µM; in the test on RXF 393 renal it was 42.5 µM; with SK-MEL-28 melanoma it was greater than 58.3 µM; in the test with SN12C renal, 35.2 µM. Further, in the test on SNB-75 CNS, the TGI was greater than 100 µM.
For the compound `Cc1cc2c(cc1Cl)SC(NNc1ccc([N+](=O)[O-])cc1)=NS2(=O)=O`, the TGI in the test on 786-0 renal, in the test with A549 NSCLC, in the test on ACHN renal, in the test with HCC-2998 colon, with HOP-62 NSCLC and in the test on K-562 leukemia was greater than 10 µM throughout. The TGI in the test with OVCAR-3 ovarian, with OVCAR-8 ovarian, in the test with RPMI-8226 leukemia, in the test with RXF 393 renal, with SK-MEL-28 melanoma and in the test with SN12C renal was greater than 10 µM in each case. The TGI with SNB-75 CNS is greater than 10 µM.
As for `CC1=C(C(=O)OC(C)C)C(c2ccccc2C(F)(F)F)C(C(=O)OC(CO[N+](=O)[O-])CO[N+](=O)[O-])=C(C)N1` (configuration not stated), the TGI is 14 µM in the test with 786-0 renal; 33 µM in the test with A549 NSCLC; 22.1 µM with ACHN renal; greater than 100 µM with HCC-2998 colon; 29.5 µM in the test with HOP-62 NSCLC; 41.7 µM in the test with K-562 leukemia. For the same compound, the TGI in the test with OVCAR-3 ovarian was 28.3 µM; with RPMI-8226 leukemia, greater than 100 µM; in the test with RXF 393 renal it was 24.7 µM; with SK-MEL-28 melanoma, 55.3 µM; with SN12C renal, 32 µM; in the test on SNB-75 CNS, 16.7 µM.
Turning to `COc1ccc(N=[N+]([O-])c2ccc(OC)cc2)cc1`, the TGI in the test on 786-0 renal, in the test with A549 NSCLC, in the test with ACHN renal, in the test on HCC-2998 colon, with HOP-62 NSCLC and in the test with K-562 leukemia was greater than 100 µM each time. Moreover, the TGI in the test with OVCAR-3 ovarian, with OVCAR-8 ovarian, in the test with RPMI-8226 leukemia, in the test on RXF 393 renal, in the test on SK-MEL-28 melanoma and in the test on SNB-75 CNS was greater than 100 µM each time.
